Assay results as given in patent publication US10485792B2, “Sustained release delivery systems for the prevention and treatment of head and neck cancers” (HADASIT MEDICAL RESEARCH SERVICES & DEVELOPMENT LIMITED, priority 2009, dated 2019).

Legend:
Oral Lichen Planus = conditions: cited from earlier work
[1] = Rapamycin stability in solution; format: physicochemical; conditions: known concentration solutions at 37° C. for 24 hours
Method: Rapamycin stability was evaluated by sampling known concentration solutions at 37° C. for 24 hours.

CO[C@H]1C[C@@H]2CC[C@@H](C)[C@@](O)(O2)C(=O)C(=O)N2CCCC[C@H]2C(=O)O[C@H]([C@H](C)C[C@@H]2CC[C@@H](O)[C@H](OC)C2)CC(=O)[C@H](C)/C=C(\C)[C@@H](O)[C@@H](OC)C(=O)[C@H](C)C[C@H](C)/C=C/C=C/C=C/1C [Rapamycin]
Local side effect after first application (Oral Lichen Planus; direct topical application to the diseased regions): tingling or burning sensations were encountered
Blood levels (Oral Lichen Planus; direct topical application): negligible
Systemic adverse effects (Oral Lichen Planus; direct topical application): no systemic adverse effects were encountered
Rapamycin stability [1]: No stability problems were observed
